# Experimental data published in US10034886B2, “GLP-1 receptor modulators” (Celgene International II SÀRL, priority 2014, dated 2018).
# Target: T1, GLP-1R (Homo sapiens, UniProt P43220)
# T1 construct: host or cells: GLP-1R CRE-bla CHO-K1 cells
# Assay: EC20 GLP-1(9-36) PAM cAMP assay: dose response of compound in the presence of fixed concentration of GLP-1(9-36)
# Format: cell-based
# Details: dose response of compound in presence of fixed concentration of GLP-1(9-36), GLP-1R CRE-bla CHO-K1 cells, read-out: EC20 GLP-1(9-36) PAM EC50
# Summary of the method: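 GLP-1R CRE-bla CHO-K1 cells treated 30 min at 37 °C with 12-point compound dose response plus fixed EC20 GLP-1(9-36), with IBMX, in HBSS/HEPES/0.1% BSA pH 7.4. Total cAMP measured by luminescent detection against standard curve; EC50 and Emax from non-linear regression.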
# T1 sequence (P43220 24-463): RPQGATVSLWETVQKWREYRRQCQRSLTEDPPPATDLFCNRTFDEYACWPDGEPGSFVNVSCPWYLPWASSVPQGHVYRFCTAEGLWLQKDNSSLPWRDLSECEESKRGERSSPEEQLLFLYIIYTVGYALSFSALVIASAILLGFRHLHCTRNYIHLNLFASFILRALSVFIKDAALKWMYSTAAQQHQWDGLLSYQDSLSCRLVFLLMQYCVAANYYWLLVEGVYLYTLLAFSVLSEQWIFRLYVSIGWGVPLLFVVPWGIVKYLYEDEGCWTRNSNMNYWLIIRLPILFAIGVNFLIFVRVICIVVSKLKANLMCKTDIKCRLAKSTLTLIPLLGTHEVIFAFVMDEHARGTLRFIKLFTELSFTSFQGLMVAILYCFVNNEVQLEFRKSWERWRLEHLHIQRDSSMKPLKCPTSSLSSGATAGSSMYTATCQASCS
# T1 sequence (P01275 100-127 partner limits assumed): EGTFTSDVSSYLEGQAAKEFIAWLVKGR
row,SMILES,EC50 [nM]
1,CCCCCCCOc1ccc(-c2cnc(-c3ccc(C[C@H](NC(=O)c4ccc(CC(C)C)cc4)C(=O)N4CC(C(=O)O)C4)cc3)nc2)cc1 [Compound 1116],800 to 2500
2,CCCCCCCOc1ccc(-c2cnc(-c3ccc(C[C@H](NC(=O)c4ccc(C(C)(C)C)nc4)C(=O)N4CC(C(=O)O)C4)cc3)nc2)cc1 [Compound 1117],800 to 2500
3,CCCCCCCOc1ccc(-c2cnc(-c3ccc(C[C@H](NC(=O)c4cnc(C(C)(C)C)nc4)C(=O)N4CC(C(=O)O)C4)cc3)nc2)cc1 [Compound 1118],800 to 2500
4,CCCCCCCOc1ccc(-c2cnc(-c3ccc(C[C@H](NC(=O)c4ccc(CC(C)C)s4)C(=O)N4CC(C(=O)O)C4)cc3)nc2)cc1 [Compound 1119],800 to 2500
5,CCCCCCCOc1ccc(-c2cnc(-c3ccc(C[C@H](NC(=O)c4ccc(C(C)(C)C)c(OC)c4)C(=O)N4CC(C(=O)O)C4)cc3)nc2)cc1 [Compound 1120],2500 to 5000
6,CCCCCCCOc1ccc(-c2cnc(-c3ccc(C[C@H](NC(=O)c4ccc(C(C)(C)CC)cc4)C(=O)N4CC(C(=O)O)C4)cc3)nc2)cc1 [Compound 1121],800 to 2500
7,CCCCCCCOc1ccc(-c2cnc(-c3ccc(C[C@H](NC(=O)c4cccc(C(C)(C)C)c4)C(=O)N4CC(C(=O)O)C4)cc3)nc2)cc1 [Compound 1122],5000 to 10000
8,CC(C)(C)c1ccc(C(=O)N[C@@H](Cc2ccc(-c3ncc(-c4ccc(C5CCCC5)cc4)cn3)cc2)C(=O)N2CCC[C@H]2C(=O)O)s1 [Compound 1123],800 to 2500
9,CC(C)(C)c1ccc(C(=O)N[C@@H](Cc2ccc(-c3ncc(-c4ccc(-c5ccccc5)cc4)cn3)cc2)C(=O)N2CCC[C@H]2C(=O)O)s1 [Compound 1124],< 800
10,Cc1ccc(/C=C/c2cnc(-c3ccc(C[C@H](NC(=O)c4ccc(C(C)(C)C)s4)C(=O)N4CCC[C@H]4C(=O)O)cc3)nc2)cc1 [Compound 1125],800 to 2500
11,CCc1ccc(/C=C/c2cnc(-c3ccc(C[C@H](NC(=O)c4ccc(C(C)(C)C)s4)C(=O)N4CCC[C@H]4C(=O)O)cc3)nc2)cc1 [Compound 1126],800 to 2500
12,Cc1cc(-c2cnc(-c3ccc(C[C@H](NC(=O)c4ccc(C(C)(C)C)s4)C(=O)N4CCC[C@H]4C(=O)O)cc3)nc2)ccc1OC(C)C [Compound 1127],800 to 2500
13,"CC[C@H]1CC[C@H](c2ccc(-c3cnc(-c4ccc(C[C@H](NC(=O)c5ccc(C(C)(C)C)s5)C(=O)N5CCC[C@H]5C(=O)O)cc4)nc3)cc2)CC1 [Compound 1128, ((S)-2-(5-(tert-butyl)thiophene-2-carboxamido)-3-(4-(5-(4-((1r,4r)-4-ethylcyclohexyl)phenyl)pyrimidin-2-yl)phenyl)propanoyl)-L-proline]",< 800
14,Cc1cc(-c2cnc(-c3ccc(C[C@H](NC(=O)c4ccc(C(C)(C)C)s4)C(=O)N[C@H](C)C(=O)O)cc3)nc2)ccc1-c1ccccc1 [Compound 1129],800 to 2500
15,CCOC1CC(c2ccc(-c3cnc(-c4ccc(C[C@H](NC(=O)c5ccc(C(C)(C)C)s5)C(=O)N[C@H](C)C(=O)O)cc4)nc3)cc2)C1 (stereo partly shown) [Compound 1130],800 to 2500
16,Cc1cc(-c2ccccc2)ccc1-c1cnc(-c2ccc(C[C@H](NC(=O)c3ccc(C(C)(C)C)s3)C(=O)N[C@H](C)C(=O)O)cc2)nc1 [Compound 1131],800 to 2500
17,C[C@@H](NC(=O)[C@H](Cc1ccc(-c2ncc(-c3ncc(-c4ccccc4)cn3)cn2)cc1)NC(=O)c1ccc(C(C)(C)C)s1)C(=O)O [Compound 1132],800 to 2500

row,SMILES,EC50 [nM]
1,C[C@@H](NC(=O)[C@H](Cc1ccc(-c2ncc(-c3ccc(-c4ccccc4F)cc3)cn2)cc1)NC(=O)c1ccc(C(C)(C)C)s1)C(=O)O [Compound 1133],< 800
2,C[C@@H](NC(=O)[C@H](Cc1ccc(-c2ncc(-c3ccc(-c4cccc(F)c4)cc3)cn2)cc1)NC(=O)c1ccc(C(C)(C)C)s1)C(=O)O [Compound 1134],800 to 2500
3,CCCCc1ccc(-c2ccc(-c3cnc(-c4ccc(C[C@H](NC(=O)c5ccc(C(C)(C)C)s5)C(=O)N[C@H](C)C(=O)O)cc4)nc3)cc2)cc1 [Compound 1135],800 to 2500
4,CCCc1ccc(-c2ccc(-c3cnc(-c4ccc(C[C@H](NC(=O)c5ccc(C(C)(C)C)s5)C(=O)N[C@H](C)C(=O)O)cc4)nc3)cc2)cc1 [Compound 1136],800 to 2500
5,CC[C@H]1CC[C@H](c2ccc(-c3cnc(-c4ccc(C[C@H](NC(=O)c5ccc(C(C)(C)C)s5)C(=O)N5CC[C@H](C(=O)O)C5)cc4)nc3)cc2)CC1 [Compound 1137],< 800
6,Cc1ccc(-c2ccc(-c3cnc(-c4ccc(C[C@H](NC(=O)c5ccc(C(C)(C)C)s5)C(=O)N[C@H](C)C(=O)O)cc4)nc3)cc2)cc1C [Compound 1138],< 800
7,Cc1ccc(-c2ccc(-c3cnc(-c4ccc(C[C@H](NC(=O)c5ccc(C(C)(C)C)s5)C(=O)N[C@H](C)C(=O)O)cc4)nc3)cc2F)cc1 [Compound 1139],< 800
8,C[C@@H](NC(=O)[C@H](Cc1ccc(-c2ncc(-c3ccc(-c4ccc(C(F)(F)F)cc4)c(F)c3)cn2)cc1)NC(=O)c1ccc(C(C)(C)C)s1)C(=O)O [Compound 1140],< 800
9,Cc1cccc(-c2ccc(-c3cnc(-c4ccc(C[C@H](NC(=O)c5ccc(C(C)(C)C)s5)C(=O)N[C@H](C)C(=O)O)cc4)nc3)cc2F)c1 [Compound 1141],< 800
10,C[C@@H](NC(=O)[C@H](Cc1ccc(-c2ncc(-c3ccc(C4CCC(F)(F)CC4)cc3)cn2)cc1)NC(=O)c1ccc(C(C)(C)C)s1)C(=O)O [Compound 1142],< 800
11,C[C@@H](NC(=O)[C@H](Cc1ccc(-c2ncc(-c3ccc([C@H]4CC[C@H](C(C)(C)C)CC4)cc3)cn2)cc1)NC(=O)c1ccc(C(C)(C)C)s1)C(=O)O [Compound 1143],< 800
12,C[C@@H](NC(=O)[C@H](Cc1ccc(-c2ncc(-c3ccc([C@H]4CC[C@@H](C(C)(C)C)CC4)cc3)cn2)cc1)NC(=O)c1ccc(C(C)(C)C)s1)C(=O)O [Compound 1144],800 to 2500
13,CC1CCC(c2ccc(-c3cnc(-c4ccc(C[C@H](NC(=O)c5ccc(C(C)(C)C)s5)C(=O)N[C@H](C)C(=O)O)cc4)nc3)cc2)CC1 (stereo partly shown) [Compound 1145],< 800
14,C[C@@H](NC(=O)[C@H](Cc1ccc(-c2ncc(-c3ccc(-c4ccc(OC(F)(F)F)cc4F)cc3)cn2)cc1)NC(=O)c1ccc(C(C)(C)C)s1)C(=O)O [Compound 1146],< 800
15,C[C@@H](NC(=O)[C@H](Cc1ccc(-c2ncc(-c3ccc(-c4ccc(C(F)(F)F)cc4F)cc3)cn2)cc1)NC(=O)c1ccc(C(C)(C)C)s1)C(=O)O [Compound 1147],< 800
16,Cc1ccc(-c2ccc(-c3cnc(-c4ccc(C[C@H](NC(=O)c5ccc(C(C)(C)C)s5)C(=O)N[C@H](C)C(=O)O)cc4)nc3)cc2)c(F)c1 [Compound 1148],< 800
17,C[C@@H](NC(=O)[C@H](Cc1ccc(-c2ncc(-c3ccc(-c4ccc(F)cc4F)cc3)cn2)cc1)NC(=O)c1ccc(C(C)(C)C)s1)C(=O)O [Compound 1149],5000 to 10000

# Further lines, results first:
row,EC50 [nM],SMILES
1,< 800,C[C@@H](NC(=O)[C@H](Cc1ccc(-c2ncc(-c3ccc(C4=CCC(C)(C)CC4)cc3)cn2)cc1)NC(=O)c1ccc(C(C)(C)C)s1)C(=O)O [Compound 1150]
2,< 800,C[C@@H](NC(=O)[C@H](Cc1ccc(-c2ncc(-c3ccc(C4=CCC(F)(F)CC4)cc3)cn2)cc1)NC(=O)c1ccc(C(C)(C)C)s1)C(=O)O [Compound 1151]
3,< 800,CC[C@H]1CC[C@H](c2ccc(-c3cnc(-c4ccc(C[C@H](NC(=O)c5ccc(CC(C)C)s5)C(=O)N5CC(C(=O)O)C5)cc4)nc3)cc2)CC1 [Compound 1152]
4,< 800,CCc1ccc(C(=O)N[C@@H](Cc2ccc(-c3ncc(-c4ccc([C@H]5CC[C@H](CC)CC5)cc4)cn3)cc2)C(=O)N2CC(C(=O)O)C2)s1 [Compound 1153]
5,< 800,CC[C@H]1CC[C@H](c2ccc(-c3cnc(-c4ccc(C[C@H](NC(=O)c5ccc(C6CC6)s5)C(=O)N5CC(C(=O)O)C5)cc4)nc3)cc2)CC1 [Compound 1154]
6,< 800,CC[C@H]1CC[C@H](c2ccc(-c3cnc(-c4ccc(C[C@H](NC(=O)c5ccc(CC(C)C)cc5)C(=O)N5CC(C(=O)O)C5)cc4)nc3)cc2)CC1 [Compound 1155]
7,< 800,CCCc1ccc(C(=O)N[C@@H](Cc2ccc(-c3ncc(-c4ccc([C@H]5CC[C@H](CC)CC5)cc4)cn3)cc2)C(=O)N2CC(C(=O)O)C2)cc1 [Compound 1156]
8,< 800,CCC(C)(C)c1ccc(C(=O)N[C@@H](Cc2ccc(-c3ncc(-c4ccc([C@H]5CC[C@H](CC)CC5)cc4)cn3)cc2)C(=O)N2CC(C(=O)O)C2)cc1 [Compound 1157]
9,< 800,CC[C@H]1CC[C@H](c2ccc(-c3cnc(-c4ccc(C[C@H](NC(=O)c5ccc(C6CC6)cc5)C(=O)N5CC(C(=O)O)C5)cc4)nc3)cc2)CC1 [Compound 1158]
10,< 800,CC[C@H]1CC[C@H](c2ccc(-c3cnc(-c4ccc(C[C@H](NC(=O)c5ccc(C6(C)CC6)cc5)C(=O)N5CC(C(=O)O)C5)cc4)nc3)cc2)CC1 [Compound 1159]
11,< 800,CC[C@H]1CC[C@H](c2ccc(-c3cnc(-c4ccc(C[C@H](NC(=O)c5ccc(OC(C)C)cc5)C(=O)N5CC(C(=O)O)C5)cc4)nc3)cc2)CC1 [Compound 1160]
12,800 to 2500,CCCCOc1ccc(CC(=O)N[C@@H](Cc2ccc(-c3ncc(-c4ccc([C@H]5CC[C@H](CC)CC5)cc4)cn3)cc2)C(=O)N2CC(C(=O)O)C2)cc1 [Compound 1161]
13,2500 to 5000,CC[C@H]1CC[C@H](c2ccc(-c3cnc(-c4ccc(C[C@H](NC(=O)c5ccc(C(C)=O)cc5)C(=O)N5CC(C(=O)O)C5)cc4)nc3)cc2)CC1 [Compound 1162]
14,< 800,CC[C@H]1CC[C@H](c2ccc(-c3cnc(-c4ccc(C[C@H](NC(=O)c5ccc(C(C)(C)C)nc5)C(=O)N5CC(C(=O)O)C5)cc4)nc3)cc2)CC1 [Compound 1163]
15,< 800,CC[C@H]1CC[C@H](c2ccc(-c3cnc(-c4ccc(C[C@H](NC(=O)c5cnc(C(C)(C)C)nc5)C(=O)N5CC(C(=O)O)C5)cc4)nc3)cc2)CC1 [Compound 1164]
